Source: patent US20140288074A1, “FUNGICIDAL PYRAZOLES” (E I DU PONT DE NEMOURS AND COMPANY, priority 2013, published 2014)
Marks after values point to notes of the source that are not given here.

Columns and labels:
[1] = test system: Puccinia recondita f. sp. tritici; assay: Test E: spray after inoculation of wheat seedlings, wheat leaf rust, visual disease rating; type: in vivo; conditions: sprayed after inoculation with Puccinia recondita f. sp. tritici
Method: General protocol for preparing test suspensions for Tests A-G: the test compounds were first dissolved in acetone in an amount equal to 3% of the final volume and then suspended at the desired concentration (in ppm) in acetone and purified water (50/50 mix by volume) containing 250 ppm of the surfactant Trem® 014 (polyhydric alcohol esters). The resulting test suspensions were then used in Tests A-G. Each test was conducted in triplicate, and the results were averaged. Spraying a 200 ppm test suspension to the point of run-off on the test plants was the equivalent of a rate of 800 g/ha. Unless otherwise indicated, the rating values indicate a 200 ppm test suspension was used. (An asterisk “*” next to the rating value indicates a 40 ppm test suspension was used.) Wheat seedlings were inoculated with a spore suspension of Puccinia recondita f. sp. tritici (the causal agent of wheat leaf rust) and incubated in a saturated atmosphere at 20° C. for 24 h, and then moved to a growth chamber at 20° C. for 2 days. At the end of this time the, the test suspension was sprayed to the point of run-off on the wheat seedlings, and then the seedlings were moved back to the growth chamber at 20° C. for 4 days. Upon removal, visual disease ratings were made. Results for Tests A-G are given in Table A. In the Table, a rating of 100 indicates 100% disease control and a rating of 0 indicates no disease control (relative to the controls). A hyphen (-) indicates no test results.

Septoria nodorum = assay: Test C: preventive spray on wheat seedlings, Septoria glume blotch, visual disease rating; type: in vivo; conditions: for pest or weed control at 200 ppm / Test C rating (disease control): 200 ppm test suspension, Septoria nodorum inoculated the day after spraying
Method in brief: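 Compounds suspended in acetone/water (50/50) with 250 ppm surfactant, sprayed to run-off at 200 ppm (40 ppm where marked); seedlings inoculated next day, held 48 h saturated at 24 °C, then 9 days at 20 °C. Visual rating 0–100% disease control versus controls, triplicate averaged.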

[2] = Parastagonospora nodorum, 264 h

Row | SMILES | Test E rating (disease control) ([1]; 200 ppm test suspension) [%] | pest or weed control at 200 ppm (Septoria nodorum; [2]) [%] | Test C rating (disease control) (Septoria nodorum) [%] | Test E rating (disease control) ([1]; 40 ppm test suspension (asterisk)) | pest or weed control at 40 ppm (Septoria nodorum; Parastagonospora nodorum, 264 h, 40 ppm test suspension (asterisk), Septoria nodorum) [%]
1 | Cc1nn(C)c(C(O)C(C)C)c1-c1ccc(F)cc1Cl (stereo not drawn) [Compound 2, 4-(2-chloro-4-fluorophenyl)-1,3-dimethyl-α-(1-methylethyl)-1H-pyrazole-5-methanol] | 26 | 0 | – | – | –
2 | CCCNc1c(-c2ccc(Cl)cc2Cl)c(C)nn1C [Compound 3] | 0 | – | 0 | – | –
3 | Cc1nn(C)c(NCC(C)C)c1-c1ccc(Cl)cc1Cl [Compound 4, 4-(2,4-dichlorophenyl)-1,3-dimethyl-N-(2-methylpropyl)-1H-pyrazol-5-amine] | 26 | 0 | – | – | –
4 | CCCCNc1c(-c2ccc(Cl)cc2Cl)c(C)nn1C [Compound 5, N-butyl-4-(2,4-dichlorophenyl)-1,3-dimethyl-1H-pyrazol-5-amine] | 79 | 0 | – | – | –
5 | Cc1nn(C)c(NC2CCCCC2)c1-c1ccc(F)cc1F [Compound 6, N-cyclohexyl-4-(2,4-difluorophenyl)-1,3-dimethyl-1H-pyrazol-5-amine] | 68 | 0 | – | – | –
6 | CCC(C)C(O)c1c(-c2ccc(F)cc2Cl)c(C)nn1C (stereo not drawn) [Compound 8, 4-(2-chloro-4-fluorophenyl)-1,3-dimethyl-α-(1-methylpropyl)-1H-pyrazole-5-methanol] | 0 | 0 | – | – | –
7 | Cc1nn(C)c(C(O)C(C)(C)CCC#N)c1-c1c(F)cccc1F (centres unmarked) [Compound 9] | 0 | – | 0 | – | –
8 | Cc1nn(C)c(C(O)C2=CCCCC2)c1-c1c(F)cccc1F (centres unmarked) [Compound 10] | 0 | – | 0 | – | –
9 | Cc1nn(C)c(C(O)CC(C)C)c1-c1c(F)cccc1F (centres unmarked) [Compound 11] | 0 | – | 0 | – | –
10 | C=CCC(C)(C)C(O)c1c(-c2c(F)cccc2F)c(C)nn1C (centres unmarked) [Compound 12] | 0 | – | 0 | – | –
11 | CCCCC(CC)C(O)c1c(-c2c(F)cccc2F)c(C)nn1C (centres unmarked) [Compound 13] | 0 | – | 0 | – | –
12 | CCCC(O)c1c(-c2c(F)cccc2F)c(C)nn1C (centres unmarked) [Compound 14] | 0 | – | 0 | – | –
13 | CCC(C)C(O)c1c(-c2c(F)cccc2F)c(C)nn1C (centres unmarked) [Compound 15] | 9 | – | 0 | – | –
14 | CCC(C)C(O)c1c(-c2c(F)cccc2Cl)c(C)nn1C (stereo not drawn) [Compound 19, 4-(2-chloro-6-fluorophenyl)-1,3-dimethyl-α-(1-methylpropyl)-1H-pyrazole-5-methanol] | – | – | – | 0* % | 0
15 | Cc1nn(C)c(C(O)CC(C)C)c1-c1c(F)cccc1Cl (centres unmarked) [Compound 20] | 0 | – | 0 | – | –
16 | CCCC(O)c1c(-c2c(F)cccc2Cl)c(C)nn1C (centres unmarked) [Compound 21] | 0 | – | 0 | – | –
